This note sets out measurements from US20170305857A1, “N-ACYLPIPERIDINE ETHER TROPOMYOSIN-RELATED KINASE INHIBITORS” (Pfizer Limited, priority 2014, published 2017).

For the experiment, the target named is T1, recombinant His-tagged cytoplasmic domains of TRKA receptor (NTRK1, PV3144, aa 441-796) (Homo sapiens, UniProt P04629).
T1 construct: aa 441-796; His; purchased Invitrogen PV3144
T1 sequence (P04629 441-796): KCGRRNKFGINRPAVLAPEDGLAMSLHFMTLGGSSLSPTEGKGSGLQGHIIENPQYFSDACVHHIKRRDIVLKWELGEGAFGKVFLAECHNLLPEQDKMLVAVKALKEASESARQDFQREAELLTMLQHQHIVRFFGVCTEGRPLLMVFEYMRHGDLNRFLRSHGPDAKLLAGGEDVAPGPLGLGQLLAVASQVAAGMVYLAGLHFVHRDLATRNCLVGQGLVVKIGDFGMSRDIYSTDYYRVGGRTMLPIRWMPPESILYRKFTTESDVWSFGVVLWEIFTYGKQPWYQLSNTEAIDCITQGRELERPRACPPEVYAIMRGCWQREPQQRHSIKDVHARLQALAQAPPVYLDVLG
The experiment can be described thus: Isolated TRK enzyme assay (HTRF KinEASE-TK, PV3144 TrkA enzyme assay). Conditions: 4 nM enzyme, 40 uM ATP, 35 min, arithmetic mean where more than one reading. The class given is biochemical. On the procedure:
Isolated TRK Enzyme assays use the HTRF KinEASE-TK kit (Cisbio Cat #62TK0PEJ) with recombinant His-tagged cytoplasmic domains of TRKA receptor sourced from Invitrogen (see table below). This activity-assay measures the phosphorylation of tyrosine residues within a substrate from the HTRF kit which has been validated by Cisbio for a variety of tyrosine kinases including the TRK receptors.
0.5 mM stock solutions of test compounds are prepared and serially diluted in 100% DMSO. […] Greiner low volume black plates containing 0.2 ul of serially diluted compound, standard and HPE/ZPE are created using the Bravo nanolitre dispenser.
1× enzyme buffer is prepared from 5× Enzymatic Buffer from the Cisbio KinEASE TK kit using MilliQ water. The buffer is then supplemented with 10 mM MgCl and 2 mM DTT (both from Sigma).
Following this preactivation step, 5 ul/well of enzyme+ATP mix is added using a Multidrop Micro to the assay plate, spotted with 0.2 ul 100% DMSO compound. This is left for 20 mins at room temperature before adding 5 ul of 2 uM TK-substrate-Biotin (from the Cisbio kit) diluted in 1× enzyme buffer (1 uM FAC) using the Multidrop Micro. The reaction is incubated at room temperature for the optimized assay reaction time (see table).
After the Detection Reagent addition, plates are covered and incubated at room temperature for 60 minutes. […] Test compound data are expressed as percentage inhibition defined by HPE and ZPE values for each plate. Percentage inhibition in the presence of test compound is plotted against compound concentration on a log scale to determine an IC50 from the resultant sigmoid curve.
Where more than one reading was taken, the arithmetic mean is presented.
For orientation: TR-FRET usually uses a lanthanide donor and a delayed reading to cut background.
For the molecule `Cn1cnc(-c2ccc(O[C@H]3[C@@H]4CC[C@H]3CN(C(=O)Cc3ccc(OC(F)(F)F)cc3)C4)c(C(N)=O)c2)c1` [Example 46, 5-(1-methyl-1H-imidazol-4-yl)-2-(((1R,5S,8r)-3-(2-(4-(trifluoromethoxy)phenyl)acetyl)-3-azabicyclo[3.2.1]octan-8-yl)oxy)benzamide], the IC50 worked out at 2.2 nM.
For `Cn1cnc(-c2ccc(O[C@@H]3[C@@H]4CC[C@H]3CN(C(=O)Cc3ccc(OC(F)(F)F)cc3)C4)c(C(N)=O)c2)c1` [Example 47, 5-(1-methyl-1H-imidazol-4-yl)-2-(((1R,5S,8s)-3-(2-(4-(trifluoromethoxy)phenyl)acetyl)-3-azabicyclo[3.2.1]octan-8-yl)oxy)benzamide] the value was 5.2 nM; for `Cn1cnc(-c2ccc(O[C@@H]3C[C@H]4CC[C@@H](C3)N4C(=O)Cc3ccc(OC(F)(F)F)cc3)c(C(N)=O)c2)c1` [Example 48, 5-(1-methyl-1H-imidazol-4-yl)-2-(((1R,3s,5S)-8-(2-(4-(trifluoromethoxy)phenyl)acetyl)-8-azabicyclo[3.2.1]octan-3-yl)oxy)benzamide], 3.6 nM; for `Cn1cnc(-c2ccc(O[C@@H]3CCN(C(=O)Cc4ccc(OC(F)(F)F)cc4)C[C@H]3F)c(C(N)=O)c2)c1` [Example 53, 2-(((3R,4R)-3-fluoro-1-(2-(4-(trifluoromethoxy)phenyl)acetyl)piperidin-4-yl)oxy)-5-(1-methyl-1H-imidazol-4-yl)benzamide], 1.2 nM.
The value for `NC(=O)c1cc(N2CCCC2)ncc1OC1CCN(C(=O)Cc2ccc(OC(F)(F)F)cc2)CC1` [Example 54, 2-(pyrrolidin-1-yl)-5-((1-(2-(4-(trifluoromethoxy)phenyl)acetyl)piperidin-4-yl)oxy)isonicotinamide] was 42.4 nM; that for `CS(=O)(=O)Cn1cc(-c2cnc(O[C@@H]3CCN(C(=O)Cc4ccc(OC(F)(F)F)cc4)C[C@@H]3F)c(C(N)=O)c2)cn1` [Example 55, 2-{[(3S,4R)-3-fluoro-1-{[4-(trifluoromethoxy)phenyl]acetyl}piperidin-4-yl]oxy}-5-{1-[(methylsulfonyl)methyl]-1H-pyrazol-4-yl}pyridine-3-carboxamide] was 1.8 nM.
`NC(=O)c1cc(-c2c[nH]c(C3(O)COC3)n2)ccc1OC1CCN(C(=O)Cc2ccc(OC(F)(F)F)cc2)CC1` [Example 56, 5-[2-(3-hydroxyoxetan-3-yl)-1H-imidazol-5-yl]-2-[(1-{[4-(trifluoromethoxy)phenyl]acetyl}piperidin-4-yl)oxy]benzamide]: the IC50 worked out at 5.1 nM.
For `NC(=O)c1cc(-c2cnn(C3COC3)c2)ccc1OC1CCN(C(=O)Cc2ccc(OC(F)(F)F)cc2)CC1` [Example 57, 5-[1-(oxetan-3-yl)-1H-pyrazol-4-yl]-2-[(1-{[4-(trifluoromethoxy)phenyl]acetyl}piperidin-4-yl)oxy]benzamide] the value was 2.6 nM.
On to `NC(=O)c1cc(-c2cnn(CCO)c2)ccc1OC1CCN(C(=O)Cc2ccc(OC(F)(F)F)cc2)CC1` [Example 58, 5-[1-(2-hydroxyethyl)-1H-pyrazol-4-yl]-2-[(1-{[4-(trifluoromethoxy)phenyl]acetyl}piperidin-4-yl)oxy]benzamide], for which the IC50 was determined as 5.5 nM.
For the molecule `Cc1n[nH]c(C)c1-c1cnc(OC2CCN(C(=O)Cc3ccc(OC(F)(F)F)cc3)CC2)c(C(N)=O)c1` [Example 59, 5-(3,5-dimethyl-1H-pyrazol-4-yl)-2-[(1-{[4-(trifluoromethoxy)phenyl]acetyl}piperidin-4-yl)oxy]pyridine-3-carboxamide], the IC50 stood at 10 nM.
Regarding `NC(=O)c1cc(-c2cc[nH]n2)cnc1OC1CCN(C(=O)Cc2ccc(SC(F)(F)F)cc2)CC1` [Example 60, 5-(1H-pyrazol-3-yl)-2-{[1-({4-[(trifluoromethyl)sulfanyl]phenyl}acetyl)piperidin-4-yl]oxy}pyridine-3-carboxamide], the IC50 worked out at 10 nM.
Take `CC(C)(CO)n1cc(-c2ccc(OC3CCN(C(=O)Cc4ccc(OC(F)(F)F)cc4)CC3)c(C(N)=O)c2)cn1` [Example 62, 5-[1-(1-hydroxy-2-methylpropan-2-yl)-1H-pyrazol-4-yl]-2-[(1-{[4-(trifluoromethoxy)phenyl]acetyl}piperidin-4-yl)oxy]benzamide]: the IC50 came out at 4 nM.
For `NC(=O)c1cc(-c2ccc3c(c2)CNS3(=O)=O)ccc1OC1CCN(C(=O)Cc2ccc(OC(F)(F)F)cc2)CC1` [Example 63, 5-(1,1-dioxido-2,3-dihydro-1,2-benzothiazol-5-yl)-2-[(1-{[4-(trifluoromethoxy)phenyl]acetyl}piperidin-4-yl)oxy]benzamide] the value was 6.7 nM; for `C[C@@H](N)c1ccc(-c2ccc(OC3CCN(C(=O)Cc4ccc(OC(F)(F)F)cc4)CC3)c(C(N)=O)c2)cc1` [Example 64, 4′-[(1R)-1-aminoethyl]-4-[(1-{[4-(trifluoromethoxy)phenyl]acetyl}piperidin-4-yl)oxy]biphenyl-3-carboxamide], 2.8 nM.
The value for `CC(C)(N)c1ccc(-c2ccc(OC3CCN(C(=O)Cc4ccc(OC(F)(F)F)cc4)CC3)c(C(N)=O)c2)cc1` [Example 65, 4'-(2-aminopropan-2-yl)-4-[(1-{[4-(trifluoromethoxy)phenyl]acetyl}piperidin-4-yl)oxy]biphenyl-3-carboxamide] was 3.5 nM; that for `C[C@H](N)c1ccc(-c2ccc(OC3CCN(C(=O)Cc4ccc(OC(F)(F)F)cc4)CC3)c(C(N)=O)c2)cc1` [Example 66, 4'-[(1S)-1-aminoethyl]-4-[(1-{[4-(trifluoromethoxy)phenyl]acetyl}piperidin-4-yl)oxy]biphenyl-3-carboxamide] was 2.8 nM; that for `Cc1nc(OC2CCN(C(=O)Cc3ccc(OC(F)(F)F)cc3)CC2)c(C(N)=O)cc1-c1cn(C)cn1` [Example 69, 6-methyl-5-(1-methyl-1H-imidazol-4-yl)-2-[(1-{[4-(trifluoromethoxy)phenyl]acetyl}piperidin-4-yl)oxy]pyridine-3-carboxamide] was 6.1 nM.
The value for `NC(=O)c1cc(-c2cn[nH]c2)cnc1O[C@@H]1CCN(C(=O)Cc2ccc(OC(F)(F)F)cc2)C[C@@H]1F` [Example 70, 2-{[(3S,4R)-3-fluoro-1-{[4-(trifluoromethoxy)phenyl]acetyl}piperidin-4-yl]oxy}-5-(1H-pyrazol-4-yl)pyridine-3-carboxamide] was 1.6 nM; that for `Cn1cc(-c2cnc(O[C@@H]3CCN(C(=O)Cc4ccc(OC(F)(F)F)cc4)C[C@@H]3F)c(C(N)=O)c2)cn1` [Example 71, 2-{[(3S,4R)-3-fluoro-1-{[4-(trifluoromethoxy)phenyl]acetyl}piperidin-4-yl]oxy}-5-(1-methyl-1H-pyrazol-4-yl)pyridine-3-carboxamide] was 1.3 nM; that for `NC(=O)c1cc(-c2cn[nH]c2)cnc1O[C@H]1CCN(C(=O)Cc2ccc(OC(F)(F)F)cc2)C[C@H]1F` [Example 72, 2-{[(3R,4S)-3-fluoro-1-{[4-(trifluoromethoxy)phenyl]acetyl}piperidin-4-yl]oxy}-5-(1H-pyrazol-4-yl)pyridine-3-carboxamide] was 1.3 nM.
As for `NC(=O)c1cc(-c2cn[nH]c2)ccc1O[C@@H]1CCN(C(=O)Cc2ccc(OC(F)(F)F)cc2)C[C@@H]1F` [Example 73, 2-{[(3S,4R)-3-fluoro-1-{[4-(trifluoromethoxy)phenyl]acetyl}piperidin-4-yl]oxy}-5-(1H-pyrazol-4-yl)benzamide], the half-maximal inhibitory concentration (IC50) came out at 0.9 nM.

One may read the IC50 as the concentration that gives 50% inhibition.
